US20050090433A1 (priority 2002, published 2005)
pKd: −log10 of the molar value. Values after ≈ are worked out from the molar mass of the structure shown. Where two headings read alike, the source gives them in different places.

Assays:
Group B streptococcus = assay: Dalbavancin MIC, baseline isolates of SSTI trial; assay type: cell-based
[1] = system: skin and soft tissue infections (SSTI); assay: Phase II trial in deep skin and soft tissue infections: clinical response; assay type: in vivo, human; conditions: exploratory subanalysis
Protocol: (§1) This randomized, controlled study evaluated the safety and efficacy of two dose regimens of dalbavancin.
There were 62 patients randomized into the study, all received at least one dose of study medication. Four study populations were evaluated for safety and efficacy and were defined as follows: The intent-to-treat (I) population included all patients who received at least one dose of study drug (all randomized study subjects).
The effectiveness of the three treatment regimens was determined by assessing the patients' clinical response and the documented or presumed microbiological responses. The primary efficacy endpoint was clinical response at the follow-up visit for the clinically evaluable population. Clinical response, for both EOT and FU visits, was categorized as success (cure or improvement) or failure (including indeterminate results). Patients classified as successes must not have received additional systemic antibacterial treatment for their infection. Failure was defined as persistence of one or more local or systemic signs and symptoms of SSTI such that treatment with new or additional systemic antibacterial agents was required for the SSTI.

S. aureus = assay: Dalbavancin MIC, baseline isolates of SSTI trial; assay type: cell-based; conditions: MITT
[2] = system: Miscellaneous Streptococcus and nontypeable strains; assay: Dalbavancin MIC, baseline isolates of SSTI trial; assay type: cell-based; conditions: for Dalbavancin MIC, Miscellaneous Streptococcus and nontypeable strains: MITT
Bovine albumin = Bovine albumin (Bos taurus, UniProt P02769); assay: Protein binding by isothermal titration microcalorimetry
Protocol: (§2) Integrated heat effects, after correction for heats of dilution, were analyzed by non-linear regression using a simple single-site binding model with the standard Microcal ORIGIN software package. Raw data (μcal/sec) for each injection were integrated to give the total heat effect per addition, then divided by amount of injectant to give kcal/mole of injectant. The same integration was applied for control dilution effects, and this was subtracted from the actual titration data. This provided a differential of the binding curve in which the extent of binding is proportional to the total heat liberated (or absorbed). This was then analyzed by non-linear regression methods in terms of various standard binding models.

[3] = Rat quantitative tissue distribution (QTD) study; conditions: male rats, single IV infusion 20 mg/kg
Protocol: (§3) Excreta and more than 40 different tissues were collected through 70 days post-administration, and the tissue distribution and pharmacokinetics of drug-derived radioactivity were determined.
Rats (3 per time-point) were euthanized at 12, 24, 48, 72, 96, 120, 144, 168, 336, 840, 1176 and 1680 hours post dose for collection of blood, plasma, and tissues (including carcass). All samples were analyzed by LSC.
As part of the QTD studies, bile samples were collected from bile duct cannulated rats (4 animals) through 384 h (16 days) post-dose.

[4] = system: Gram-positive isolates, including MRSA; assay: Dalbavancin MIC, Gram-positive isolates of SSTI trial; assay type: cell-based; conditions: Staphylococcus aureus, read-out: MICs against Gram-positive isolates, including MRSA
[5] = human, in vivo
Protocol: (§4) Adverse events were recorded and assessed for severity and relationship to study drug. Laboratory data (chemistry panel, CBC with differential, urinalysis) were collected and assessed for changes from baseline and out-of-range values. ECG, physical examination, and vital signs were obtained, and changes from baseline were assessed.

[6] = Safety assessments in healthy subjects; conditions: single 1000 mg IV
Protocol: as §4

bacteria = assay: Minimum bactericidal concentration; assay type: cell-based; conditions: 24 h, kill at least 99% of bacteria over 24 hour in vitro; in plasma
From the text: The amount of dalbavancin administered may be any of the dosages disclosed herein.

Rat albumin = Rat albumin (Rattus norvegicus, UniProt P02770); assay: Protein binding by isothermal titration microcalorimetry; conditions: Apparent binding affinity Ka, pH 7.4, ± SD of fit
Protocol: as §2

[7] = rat, in vivo
Protocol: as §3
Following dose administration, urine and feces were collected at 24 hour intervals to 14, 36, and 70 days after the dose (3 rats/final collection time). Water and methanol cage washes were also collected. Carcasses were analyzed at the end of the collection period. AU samples were analyzed for total radioactivity content by liquid scintillation counting (LSC).

Human albumin [8] = molecular target: T1, Human albumin (Homo sapiens, UniProt P02768); conditions: pH 7.4
Protocol: as §2

Human albumin [9] = molecular target: T1, Human albumin; assay: Protein binding by isothermal titration microcalorimetry; conditions: Apparent binding affinity Ka, Human albumin, pH 7.4, ± SD of fit
Protocol: as §2

Dog albumin = Dog albumin (Canis lupus familiaris, UniProt P49822); assay: as above; conditions: Apparent binding affinity Ka, pH 7.4, ± SD of fit
Protocol: as §2

[10] = Pharmacokinetics and renal excretion in healthy subjects; conditions: human, in vivo, iv, 1000 mg; for half-life: healthy subjects, single 1000 mg IV
Protocol: Blood samples were drawn into heparinized tubes and centrifuged. Plasma was separated and stored frozen at −20° C. until time of assay. Plasma and urine samples were assayed for dalbavancin using validated LC/MS/MS methods. […] The peak concentration (Cmax) values were obtained directly from the observed data. The area under the plasma concentration-time curve (AUC) was calculated using the linear trapezoidal rule. Clearance (CL) was computed as dose/AUC. The elimination half life (t1/2) was estimated by linear regression of the log-linear portion of the log concentration versus time curve. Estimates of the volume of distribution (Vz) was calculated using the regression parameters, while the volume of distribution at steady state (Vss) was calculated from the area under the first moment curve (AUMC) multiplied by the dose and divided by AUC. The cumulative amount of dalbavancin excreted in urine was determined as the integrand of the urine excretion rate (AURC). CLR or renal clearance, was calculated as the ratio: CLR=AURC/AUC.

[11] = pH 7.4
human α-glycoprotein = conditions: pH 7.4
Protocol: as §2

Streptococcus pyogenes = assay: Dalbavancin MIC, baseline isolates of SSTI trial; assay type: cell-based; conditions: read-out: Dalbavancin MIC, Streptococcus pyogenes, MITT, two-dose group
[12] = SSTI trial: adverse events; assay type: in vivo, human
Protocol: as §1
Each patient who received at least one dose of study drug (ITT population) was evaluated for drug safety through monitoring of adverse events (AE), including abnormal clinical laboratory test results and vital signs. AE were rated by the investigator as to their severity (mild, moderate, severe, life-threatening), and by the relationship to the study drug (not related, unlikely related, possibly related, or probably related).

T1 sequence (P02768 25-609): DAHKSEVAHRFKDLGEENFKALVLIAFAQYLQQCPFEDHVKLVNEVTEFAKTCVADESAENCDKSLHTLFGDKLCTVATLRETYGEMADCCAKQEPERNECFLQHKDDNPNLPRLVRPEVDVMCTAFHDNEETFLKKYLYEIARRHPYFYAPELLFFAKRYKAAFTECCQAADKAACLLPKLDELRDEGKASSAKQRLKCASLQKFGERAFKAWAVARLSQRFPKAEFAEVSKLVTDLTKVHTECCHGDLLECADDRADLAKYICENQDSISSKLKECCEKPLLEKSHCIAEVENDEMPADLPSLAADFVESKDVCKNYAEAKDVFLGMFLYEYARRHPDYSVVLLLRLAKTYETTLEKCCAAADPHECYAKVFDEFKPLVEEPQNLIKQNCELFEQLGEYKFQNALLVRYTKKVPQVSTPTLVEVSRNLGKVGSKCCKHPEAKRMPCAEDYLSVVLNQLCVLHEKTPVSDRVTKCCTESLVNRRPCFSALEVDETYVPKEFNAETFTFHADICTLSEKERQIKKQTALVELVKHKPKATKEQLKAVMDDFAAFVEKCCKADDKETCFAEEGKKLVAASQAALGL
Sequence of Rat albumin (P02770 25-608): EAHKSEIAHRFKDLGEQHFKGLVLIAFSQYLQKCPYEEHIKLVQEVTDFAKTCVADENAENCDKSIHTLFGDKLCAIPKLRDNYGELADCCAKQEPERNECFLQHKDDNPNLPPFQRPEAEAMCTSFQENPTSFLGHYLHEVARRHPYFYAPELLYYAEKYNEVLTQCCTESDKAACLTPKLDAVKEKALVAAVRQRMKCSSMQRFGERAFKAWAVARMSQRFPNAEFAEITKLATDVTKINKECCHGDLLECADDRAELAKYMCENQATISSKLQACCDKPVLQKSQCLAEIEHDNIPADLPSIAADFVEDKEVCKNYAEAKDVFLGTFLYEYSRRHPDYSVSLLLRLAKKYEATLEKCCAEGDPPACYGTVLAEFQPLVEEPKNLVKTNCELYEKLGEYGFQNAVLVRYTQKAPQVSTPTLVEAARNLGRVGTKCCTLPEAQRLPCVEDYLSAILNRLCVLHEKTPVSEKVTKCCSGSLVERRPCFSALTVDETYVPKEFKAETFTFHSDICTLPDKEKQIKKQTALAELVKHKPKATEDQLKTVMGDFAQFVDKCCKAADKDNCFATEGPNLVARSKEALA
Sequence of Dog albumin (P49822 25-608): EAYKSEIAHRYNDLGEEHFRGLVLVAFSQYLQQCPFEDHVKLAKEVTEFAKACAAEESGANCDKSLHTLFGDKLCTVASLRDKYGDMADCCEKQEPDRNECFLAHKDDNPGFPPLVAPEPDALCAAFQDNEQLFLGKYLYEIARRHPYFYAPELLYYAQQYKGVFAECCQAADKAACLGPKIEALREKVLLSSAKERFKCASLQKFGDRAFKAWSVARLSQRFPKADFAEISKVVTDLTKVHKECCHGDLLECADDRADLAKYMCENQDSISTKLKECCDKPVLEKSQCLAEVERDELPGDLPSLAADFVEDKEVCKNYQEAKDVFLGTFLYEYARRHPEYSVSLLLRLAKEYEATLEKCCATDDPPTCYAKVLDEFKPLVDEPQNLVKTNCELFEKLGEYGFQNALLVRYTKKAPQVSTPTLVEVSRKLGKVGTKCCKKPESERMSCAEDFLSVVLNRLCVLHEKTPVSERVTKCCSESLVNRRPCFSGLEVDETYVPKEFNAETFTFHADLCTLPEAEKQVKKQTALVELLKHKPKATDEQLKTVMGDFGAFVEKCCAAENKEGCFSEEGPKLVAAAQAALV
Sequence of Bovine albumin (P02769 25-607): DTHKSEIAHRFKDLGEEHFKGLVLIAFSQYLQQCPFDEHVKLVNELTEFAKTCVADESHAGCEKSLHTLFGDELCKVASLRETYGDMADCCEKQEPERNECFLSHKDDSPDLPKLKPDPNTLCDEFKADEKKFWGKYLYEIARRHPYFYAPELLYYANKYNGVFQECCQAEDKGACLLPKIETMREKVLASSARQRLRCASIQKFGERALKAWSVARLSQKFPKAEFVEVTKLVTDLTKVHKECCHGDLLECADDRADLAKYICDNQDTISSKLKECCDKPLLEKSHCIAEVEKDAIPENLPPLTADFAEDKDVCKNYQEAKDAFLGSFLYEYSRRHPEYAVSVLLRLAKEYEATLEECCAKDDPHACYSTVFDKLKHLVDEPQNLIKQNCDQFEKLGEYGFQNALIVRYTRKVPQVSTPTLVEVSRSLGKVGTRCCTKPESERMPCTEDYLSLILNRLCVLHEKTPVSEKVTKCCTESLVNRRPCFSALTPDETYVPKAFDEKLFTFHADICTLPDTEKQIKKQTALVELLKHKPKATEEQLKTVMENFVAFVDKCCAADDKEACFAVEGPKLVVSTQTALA

Compound: CN[C@H]1C(=O)N[C@@H]2Cc3ccc(cc3)Oc3cc4cc(c3O[C@@H]3O[C@H](C(=O)O)[C@@H](O)[C@H](O)[C@H]3NC(=O)CCCCCCCCC(C)C)Oc3ccc(cc3Cl)[C@@H](O)[C@@H]3NC(=O)[C@H](NC(=O)[C@@H]4NC(=O)[C@@H](NC2=O)c2cc(cc(O)c2Cl)Oc2cc1ccc2O)c1ccc(O)c(c1)-c1c(O[C@H]2O[C@H](CO)[C@@H](O)[C@H](O)[C@@H]2O)cc(O)cc1[C@@H](C(=O)NCCCN(C)C)NC3=O [Dalbavancin]
- Dalbavancin MIC, Group B streptococcus (Group B streptococcus; MITT, standard of care group): 2 (0.016) mg/L
- MIC (Group B streptococcus; Streptococcus, read-out: Dalbavancin MIC, Group B streptococcus, MITT, two-dose group): 0.016 µg/mL (≈ 8.81 nM)
- Clinical success rate, patients with deep or complicated SSTI at baseline ([1]; single-dose 1100 mg IV day 1): 58.3%
- Clinical success rate, patients with deep or complicated SSTI at baseline ([1]; two-dose 1000 mg IV day 1, 500 mg day 8): 93.8%
- Dalbavancin MIC range, All S. aureus (S. aureus; standard of care group): 10 (0.016-0.25) mg/L
- Dalbavancin MIC, All S. aureus (S. aureus; two-dose group): 11 (0.12) mg/L
- Dalbavancin MIC, Miscellaneous Streptococcus and nontypeable strains ([2]; standard of care group): 4 (0.016) mg/L
- Dalbavancin MIC, Miscellaneous Streptococcus and nontypeable strains ([2]; two-dose group): 2 (0.016) mg/L
- MIC ([2]; Streptococcus, read-out: Dalbavancin MIC, Miscellaneous Streptococcus and nontypeable strains, MITT, single dose group): 0.016 µg/mL (≈ 8.81 nM)
- pKd (Bovine albumin): 5.14
- Skin concentrations of drug-derived radioactivity relative to plasma [3]: as high as or higher than in plasma
- MIC [4]: 0.016 to 0.25 µg/mL (≈ 8.81 to 138 nM)
- Eosinophilia, AE possibly related to study medication [5]: 500 µL⁻¹
- Intensity of reported AEs [5]: all of mild intensity
- Deaths or serious adverse events [6]: No subject deaths or serious adverse events
- MBC (bacteria): 4 to 10 µg/mL (≈ 2200 to 5500 nM)
- pKd (Rat albumin; 25° C.): 5.49
- pKd (Rat albumin; 37° C.): 5.45
- Dose remaining in the carcass ([7]; male, Sprague-Dawley, 1680 h): 4.5%
- Radioactivity administered eliminated in urine and feces within the first week ([7]; iv, 20 mg/kg): Approximately half
- Share of excreted radioactivity eliminated in feces ([7]; iv, 20 mg/kg): ⅓
- Share of excreted radioactivity eliminated in urine ([7]; iv, 20 mg/kg): ⅔
- Calculated percent Binding, Human albumin (Human albumin [8]; 1 μM): 98.8%
- Calculated percent Binding, Human albumin (Human albumin [8]; 10 μM): 98.8%
- Calculated percent Binding, Human albumin (Human albumin [8]; 100 μM): 98.7%
- Calculated percent Binding, Human albumin (Human albumin [8]; 165 μM): 98.6%
- Calculated percent Binding, Human albumin (Human albumin [8]; 250 μM): 98.5%
- Calculated percent Binding, Human albumin (Human albumin [8]; 500 μM): 98.0%
- pKd (Human albumin [9]; 25° C.): 5.13
- pKd (Human albumin [9]; 37° C.): 5.12
- pKd (Dog albumin; 25° C.): 4.79
- pKd (Dog albumin; 37° C.): 4.70
- AUC ([10]; both sexes): 23800 µg·h/mL
- clearance ([10]; both sexes): 0.718 mL/min
- Vd ([10]; both sexes, Apparent volume of distribution): > 10 L
- CL renal ([10]; both sexes, CLR): 0.3 mL/min
- Vd ([10]; both sexes, VSS): 11.5 L
- Vd ([10]; both sexes, VZ): 16 L
- half-life ([10]; both sexes): 9 to 12 days
- half-life ([10]; both sexes, mean): 10.7 days
- CL ([10]; both): 0.0431 L/h
- CLR ([10]; both): 0.0181 L/h
- Solubility in the presence of HSA [11]: significantly increased
- Calculated percent Binding, Human α-glycoprotein (human α-glycoprotein; 1 μM): 73.0%
- Calculated percent Binding, Human α-glycoprotein (human α-glycoprotein; 10 μM): 68.2%
- Calculated percent Binding, Human α-glycoprotein (human α-glycoprotein; 100 μM): 26.2%
- Calculated percent Binding, Human α-glycoprotein (human α-glycoprotein; 165 μM): 16.9%
- Calculated percent Binding, Human α-glycoprotein (human α-glycoprotein; 250 μM): 11.4%
- Calculated percent Binding, Human α-glycoprotein (human α-glycoprotein; 500 μM): 5.9%
- MIC (Streptococcus pyogenes): 0.016 µg/mL (≈ 8.81 nM)
- AE leading to discontinuation of study medication ([12]; human, in vivo): 0%
- ≧1 AE ([12]; human, in vivo): 95%
- ≧1 severe AE ([12]; human, in vivo): 2 (10%)
- Hepatotoxicity or nephrotoxicity ([12]; in vivo): no evidence that dalbavancin induces any degree of clinically significant hepatotoxicity or nephrotoxicity
- Serious adverse events related to study drug ([12]; in vivo): no serious adverse events related to study drug treatment
- Tolerability ([12]; in vivo): well tolerated
- ≧1 AE possibly/probably related to treatment ([12]; single-dose (N = 20)): 55%
- ≧1 AE possibly/probably related to treatment ([12]; two-dose (N = 21)): 48%
